The values below come from patent US11612601B1, “Targeting epidermal growth factor to treat vascular calcification” (THE FLORIDA INTERNATIONAL UNIVERSITY BOARD OF TRUSTEES, priority 2022, dated 2023).

Data set [1] concerns CKD mice. The data set can be described thus: Chronic kidney disease and vascular calcification mouse model (OsteoSense calcium tracer in aorta). The note with it: for vascular calcification (calcium tracer OsteoSense visualization, aorta): daily oral gavage 10 mg/kg for two weeks, vs CKD vehicle, 10 mg/kg. It counts as in vivo. The text has this:
The in vivo study was approved by the Institutional Animal Care and Use Committee (IACUC) at Florida International University under protocol AN20-006 and conformed to current NIH guidelines. 8-week-old wild type C57BL/6J mice (n=38, 19 per biological sex) were fed an adenine-supplemented diet (0.2%, TestDiet, Richmond, Ind.) for 6 weeks to induce severe kidney injury. The mice then received a diet containing 1.8% phosphate (TestDiet, Richmond, Ind.) and 0.2% adenine for an additional two weeks to induce medial calcinosis.
Along with this calcifying diet, a group of mice (n=19) received daily tyrphostin AG1478 (10 mg/kg mouse, Millipore Sigma, T4182) via oral gavage. The remaining mice (n=19) received vehicle treatment (1% w/v, carboxymethylcellulose sodium salt, Sigma, C5678). For non-diseased controls, a third group of mice (n=12, 6 per biological sex) were fed a regular chow diet and received the vehicle for the final two weeks. During the oral gavage, animals were partially anesthetized using isoflurane (1%, Patterson Veterinary, 07-893-1389, in 2 L.min^−1 oxygen flow). All animals received a tail vein injection with the calcium tracer OsteoSense 680EX (80 nmol/kg mouse, PerkinElmer, NEV10020EX) 48 hours prior to euthanization. At study endpoint, mice were anesthetized with isoflurane (1%, in 2 L.min^−1 oxygen flow) followed by retro-orbital bleeding for blood collection. Mice were then immediately euthanized by laceration of the diaphragm before tissue collection. After resection, the aortas were imaged using a near-infrared scanner (LI-COR Odyssey) to visualize the vascular calcification burden. A custom MATLAB script quantified the total area of the calcium tracer, which was normalized to the total scanned aorta area.

Data set [2] concerns CKD mice. Put plainly: Kidney renal fibrosis marker qRT-PCR and H&E histology in CKD mice. It counts as in vivo, mouse. How it is done: To assess histological changes in kidneys due to renal injury, Hematoxylin and Eosin (H&E) staining was performed. The kidneys resected from the mice were fixed using formalin (10%) for three hours. Tissues were embedded using Tissue-Plus OCT (Fisher Scientific, 23-730-571). The samples were cryosectioned with a thickness of 12 μm and stained using rapid chrome H&E staining kit (Thermo Scientific, 9990001).
To isolate RNA from the resected kidneys, the tissues were homogenized using a grinder (Sigma, Z529672) and lysed in 1 mL TRIzol solution. After 10 min incubation at room temperature, the samples were centrifuged at 12,000×g for 10 min at 4° C. The supernatants were collected and 200 μL of chloroform (Sigma Aldrich, C2432) were added to each sample. The samples were vortexed, incubated at room temperature for 10 min, and centrifuged for 15 min at 12,000×g, 4° C. The aqueous phase was collected from each sample and 500 μL of isopropanol was added; the samples were vortexed, incubated for 15 min at room temperature following by 15 min on ice, and centrifuged at 21,000×g for 15 min. The supernatants were discarded, and pellets were washed twice with 500 μL cold ethanol (75% v/v) and centrifuged at 21,000×g for 5 min. The isolated RNA templates were heated at 65° for 15 min, and the concentrations were measured using a spectrophotometer (NanoDrop Lite, Thermo scientific). Power SYBR Green RNA-to-CT 1-Step Kit with 100 ng isolated template RNA per reaction was used.
The following mouse primer sequences were purchased from Eurofins Scientific; Gapdh Forward: AACGACCCCTTCATTGAC (SEQ ID NO: 9) and Reverse: TCCACGACATACTCAGCAC (SEQ ID NO: 10); Colla1 Forward: […] (SEQ ID NO: 11) and Reverse: […] (SEQ ID NO: 12); Tgfb1 Forward: […] (SEQ ID NO: 13) and Reverse: CAGCAGCCGGTTACCAAG (SEQ ID NO: 14).
(Quantitative PCR measures a nucleic acid by following its amplification.)

Data set [3] relates to CKD mice. The data set can be described thus: Femur X-ray CT bone thickness and bone volume fraction in CKD mice. It counts as in vivo, mouse. The protocol: Femurs were dissected from mice, wrapped in parafilm and imaged directly in a Nikon XT H 225 scanner (macro-CT, Nikon Metrology, Tring, UK). The raw transmission images were reconstructed using commercial image reconstruction software package (CT Pro 3D, Nikon Metrology, Tring, UK), which employs a filtered back-projection algorithm. The scan was performed using 80 kV beam energy, 70 μA beam current, and a power of 5.6 W. A PerkinElmer 1620 flat panel detector was used, with 200 μm pixel size. The resulting effective pixel size was 5 μm. The exposure time per projection was 0.5 s, and a total of 1601 projections were acquired, resulting in a scanning time of approximately 13 minutes per sample. Bone structural parameters, including thickness and volume fraction (the ratio of bone volume (BV) to total volume (TV)), for both cortical and trabecular regions were assessed using a plug-in module, BoneJ, in ImageJ (NIH, USA).

Each structure is given as a SMILES string.

With `COc1cc2ncnc(Nc3cccc(Cl)c3)c2cc1OC` [AG1478, tyrphostin AG1478], the “Quantification of the OsteoSense intensity (vascular calcification)” value in data set [1] (CKD mice, 10 mg/kg daily, two weeks, vs CKD, p≤0.001) was “significant reduction”. Besides, the “vascular calcification (calcium tracer OsteoSense visualization, aorta)” value in data set [1] (CKD mice) is “reduced calcium burden”; in data set [1] (CKD mice, listed as EGFR inhibitor) it was “dramatically reduced”. Also, the survival rate in data set [1] (CKD mouse model) was 100%. The “expression of common markers of renal injury” value in data set [2] (CKD mice) was “does not reduce”. Moreover, in data set [2] (kidney, CKD mice treated vs CKD, p=0.6), the “Gene expression of renal fibrosis marker Colla1” value is reported as “no significant differences”. Further, in data set [2] (kidney, CKD mice treated vs CKD, p=0.7), the “Gene expression of renal fibrosis marker Tgfb1” value was “no significant differences”. For the same molecule, in data set [3] (CKD mice treated vs CKD, p=0.004), the “thickness of cortical bone” value was “increased”. The “thickness of trabecular bone, metaphysical region” value in data set [3] (CKD mice treated vs CKD, p=0.02) is given as “increased”. For the same molecule, in data set [3] (CKD mice treated vs CKD, p=0.04), the “thickness of trabecular bone, epiphyseal region” value is on record as “increased”. Also, in data set [3] (compared to CKD animals, p=0.002), the “bone volume fraction in trabecular bone, metaphysical region” value is reported as “increased”. For the same molecule, the “bone volume fraction in trabecular bone, epiphyseal region” value in data set [3] (compared to CKD animals, p=0.009) is “increased”. Further, the “bone volume fraction in cortical bone” value in data set [3] (compared to CKD animals, p=0.25) is “did not significantly change”.
